# “Also recorded” adds a separate entry of the source.
# Assays:
# Format in all cases: in vivo, Arabidopsis thaliana
# VGE receptor [1] = experiment: Histochemical GUS staining of treated leaves of T1 transgenic Arabidopsis; settings: 67 T1 plants, 1:8000 dilution of Intrepid 2F on one leaf, two days, X-Gluc
# Experimental: Analysis of GUS activity—The relative GUS activity in the transgenic Arabidopsis plants described herein was measured by histochemical analysis. In each of sixty-seven (67) T1 transgenic Arabidopsis plants carrying E:GUS, 5G35Sm:RF2a and Cs:VGE, the 1:8000 dilution of Intrepid® 2F described above was applied to one true leaf, while the other leaves in each plant remained untreated. Two-days following the application of the expression-inducing ligand, the treated leaf together with one untreated leaf from the same plant were detached and subjected to GUS staining.
# More particularly, the plant leaf tissues mentioned above were submerged in stain solution containing 1 mM of X-Gluc in 100 mM sodium phosphate buffer (pH 7.0), 2 mM K3Fe(CN)6, 2 mM K4Fe(CN)6, 0.1% Triton X-100 and 20% methanol (Petruccelli et al. 2001). In order to evaluate GUS activity, several substrates are available. The most commonly used are 5-bromo-4-chloro-3-indolyl glucuronide (X-Gluc) and 4-methyl-umbelliferyl-glucuronide (MUG). […] For quantification purposes, MUG is preferred, because the umbelliferyl radical emits fluorescence under UV stimulation, thus providing better sensitivity and easy measurement by fluorometry. […]
# VGE receptor [2] = experiment: Induction of RF2a expression in transgenic Arabidopsis (Western Blot); settings: 1:8000 dilution of Intrepid 2F; plants with E:GUS, 5G35Sm:RF2a, Cs:VGE
# Text: Induction of RF2a expression—RF2a expression was induced in the transgenic Arabidopsis plants described herein by application of a 1:8000 dilution of the pesticide Intrepid® 2F (Dow AgroSciences, Indianapolis, Ind.). The active ingredient in Intrepid® 2F pesticide is methoxyfenozide. […] Accordingly, the methoxyfenozide compound served as an expression-inducing ligand, which functioned to enhance expression of the RF2a-encoding sequence. Upon application of the methoxyfenozide compound, RF2a expression was induced, thereby allowing RF2a to interact with the Box II-containing E fragment, which was operably linked to the uidA sequence.
# Western Blot analysis—To detect the expression of RF2a in select transgenic lines described above, either treated or untreated with Intrepid® 2F, 40 μg of protein of each sample was separated by 12% SDS-PAGE and blotted onto nitrocellulose membrane. The Arabidopsis lines analyzed by Western Blot included EGaV50, EGaV59, EGaV63, EGaV70, EGaV72, and E:GUS. Rabbit anti-RF2a antibodies were first applied to the nitrocellulose membrane, incubated, and washed. Next, anti-rabbit horseradish peroxidase-conjugated secondary antibodies were applied to the membrane, incubated, and washed. Finally, SuperSignal substrate (Pierce, Rockford, Ill.) was applied to the membrane, incubated, and washed.
# VGE receptor [3] = experiment: Quantitative GUS activity (MUG) in T2 transgenic Arabidopsis; settings: twelve T2 lines, 1:8000 dilution of Intrepid 2F in hydroponic solution, three days
# Experimental: Quantitative analysis of GUS activity in methoxyfenozide-treated plants was then conducted. T2 generation transgenic Arabidopsis plants from twelve T1 primary lines were selected on hygromycin selection medium. The lines are individually referred to herein as EGaV-3, EGaV-5, EGaV-17, EGaV-31, EGaV-50, EGaV-51, EGaV-56, EGaV-59, EGaV-63, EGaV-70, EGaV-72, and E:GUS. For each primary line, eighteen 14-day-old T2 plants were used. Nine plants, in three groups, were cultured in MS hydroponic solution containing a 1:8000 dilution of Intrepid 2F®. The remaining nine plants, in three groups, were left untreated and served as controls. After a three-day treatment period, the GUS activity in leaf tissue samples from each plant was quantified.
# Each sample of leaf tissue was ground to a powder in liquid nitrogen. Total protein was extracted from each sample by adding 300 μl of extraction buffer. Protein concentration of each sample was quantified using a Dc Protein Assay Kit (Bio-Rad Laboratories, Hercules, Calif.). GUS activity of each sample was quantified using MUG as substrate and a fluorescence spectrometer (Molecular Devices, Sunnyvale, Calif.) (Petruccelli et al., 2001).
structure (smiles),measurement,setting,value
COc1cccc(C(=O)NN(C(=O)c2cc(C)cc(C)c2)C(C)(C)C)c1C [methoxyfenozide],plants with constitutive GUS expression pattern in treated leaves,VGE receptor [1],approximately 70%
same,RF2a expression,VGE receptor [2],enhance RF2a expression; also recorded: presence of RF2a
same,"induction of GUS expression in relation to untreated control plants, average",VGE receptor [3],2.1 fold
